Assay results: patent US9670162B2, “Mitochondrial aldehyde dehyrogenase-2 modulators and methods of use thereof” (The Board of Trustees of the Leland Stanford Junior …, priority 2013, dated 2017)

Assays:
Caco-2 permeability = type: in vitro ADME; details: human
Description: (§1) In vitro ADMET of compounds of the present disclosure was carried out according to known methods in the art. Below are data for certain compounds of the present disclosure.

CYP1A2 = target: T1, CYP1A2 (Homo sapiens, UniProt P05177); assay: Cyp inhibition 1A2; type: in vitro ADME; parameters: inhibition: dose or concentration left out as unconfirmed
T1 sequence (P05177 1-516): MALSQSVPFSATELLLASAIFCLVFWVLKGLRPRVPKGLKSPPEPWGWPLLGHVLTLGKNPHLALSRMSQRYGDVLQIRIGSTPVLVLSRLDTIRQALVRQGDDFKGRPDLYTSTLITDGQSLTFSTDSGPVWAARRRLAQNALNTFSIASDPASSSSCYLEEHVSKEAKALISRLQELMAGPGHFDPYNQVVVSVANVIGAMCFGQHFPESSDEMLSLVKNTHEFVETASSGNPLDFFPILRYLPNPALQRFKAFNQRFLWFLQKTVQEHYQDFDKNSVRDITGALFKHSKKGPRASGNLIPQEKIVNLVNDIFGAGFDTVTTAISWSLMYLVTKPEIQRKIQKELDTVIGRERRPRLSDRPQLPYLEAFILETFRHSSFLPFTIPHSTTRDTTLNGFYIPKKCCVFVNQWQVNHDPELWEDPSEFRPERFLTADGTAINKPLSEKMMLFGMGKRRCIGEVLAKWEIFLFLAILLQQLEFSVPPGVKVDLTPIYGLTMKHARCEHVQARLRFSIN
Description: as §1

Plasma stability, rat = type: in vitro ADME
Description: as §1

Aqueous solubility = type: physicochemical
Description: as §1

CYP2D6 = CYP2D6 (Homo sapiens, UniProt P10635); assay: Cyp inhibition 2D6; type: in vitro ADME
CYP2D6, sequence (P10635 whole entry): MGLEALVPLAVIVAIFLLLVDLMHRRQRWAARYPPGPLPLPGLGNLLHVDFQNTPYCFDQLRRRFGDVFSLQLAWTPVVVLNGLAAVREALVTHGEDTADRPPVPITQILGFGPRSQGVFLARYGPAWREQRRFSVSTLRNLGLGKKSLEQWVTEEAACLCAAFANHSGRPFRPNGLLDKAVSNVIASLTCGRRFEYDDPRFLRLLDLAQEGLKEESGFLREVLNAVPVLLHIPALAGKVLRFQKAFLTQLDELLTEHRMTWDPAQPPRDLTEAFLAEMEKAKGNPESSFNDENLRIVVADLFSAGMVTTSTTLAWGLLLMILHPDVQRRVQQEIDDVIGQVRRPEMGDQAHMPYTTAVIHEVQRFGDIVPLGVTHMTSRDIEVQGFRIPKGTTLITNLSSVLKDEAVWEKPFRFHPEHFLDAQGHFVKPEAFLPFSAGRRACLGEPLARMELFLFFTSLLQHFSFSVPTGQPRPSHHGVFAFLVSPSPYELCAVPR
Description: as §1

human ALDH2 wild type = target: T2, human ALDH2 wild type (Homo sapiens, UniProt P05091); assay: ALDH2 enzymatic assay (NADH at 340 nm), recombinant wild type enzyme; type: biochemical; parameters: key: −: no activation or inhibition; +: activation less than control 1; ++: activation similar to control 1, within 10%; +++: activation more than control 1 and less than control (compound 161); ++++: activation similar to compound 161, within 10%; details: activation relative to benchmarks control 1 and compound 161
T2 construct: His-tag (pTrcHis vector) (N); made in house; host or cells: E. coli BL21
T2 sequence (P05091 18-517): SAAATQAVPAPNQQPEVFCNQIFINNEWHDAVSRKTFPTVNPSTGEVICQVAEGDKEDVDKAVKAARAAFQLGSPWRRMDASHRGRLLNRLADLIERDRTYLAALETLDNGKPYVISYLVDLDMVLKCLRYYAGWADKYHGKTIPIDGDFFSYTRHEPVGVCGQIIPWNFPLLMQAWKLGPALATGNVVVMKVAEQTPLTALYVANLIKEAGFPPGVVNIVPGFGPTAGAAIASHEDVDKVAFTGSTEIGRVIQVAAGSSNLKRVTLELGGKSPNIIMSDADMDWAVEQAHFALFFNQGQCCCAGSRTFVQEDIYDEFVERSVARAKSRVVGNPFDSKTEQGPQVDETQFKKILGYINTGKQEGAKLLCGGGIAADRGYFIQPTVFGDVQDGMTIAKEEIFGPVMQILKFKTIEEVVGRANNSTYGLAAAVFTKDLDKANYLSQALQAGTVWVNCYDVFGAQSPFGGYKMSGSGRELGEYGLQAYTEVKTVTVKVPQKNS

hERG channel = hERG channel (Homo sapiens, UniProt Q12809); assay: hERG channel patch-clamp; type: cell-based
hERG channel, sequence (Q12809 whole entry): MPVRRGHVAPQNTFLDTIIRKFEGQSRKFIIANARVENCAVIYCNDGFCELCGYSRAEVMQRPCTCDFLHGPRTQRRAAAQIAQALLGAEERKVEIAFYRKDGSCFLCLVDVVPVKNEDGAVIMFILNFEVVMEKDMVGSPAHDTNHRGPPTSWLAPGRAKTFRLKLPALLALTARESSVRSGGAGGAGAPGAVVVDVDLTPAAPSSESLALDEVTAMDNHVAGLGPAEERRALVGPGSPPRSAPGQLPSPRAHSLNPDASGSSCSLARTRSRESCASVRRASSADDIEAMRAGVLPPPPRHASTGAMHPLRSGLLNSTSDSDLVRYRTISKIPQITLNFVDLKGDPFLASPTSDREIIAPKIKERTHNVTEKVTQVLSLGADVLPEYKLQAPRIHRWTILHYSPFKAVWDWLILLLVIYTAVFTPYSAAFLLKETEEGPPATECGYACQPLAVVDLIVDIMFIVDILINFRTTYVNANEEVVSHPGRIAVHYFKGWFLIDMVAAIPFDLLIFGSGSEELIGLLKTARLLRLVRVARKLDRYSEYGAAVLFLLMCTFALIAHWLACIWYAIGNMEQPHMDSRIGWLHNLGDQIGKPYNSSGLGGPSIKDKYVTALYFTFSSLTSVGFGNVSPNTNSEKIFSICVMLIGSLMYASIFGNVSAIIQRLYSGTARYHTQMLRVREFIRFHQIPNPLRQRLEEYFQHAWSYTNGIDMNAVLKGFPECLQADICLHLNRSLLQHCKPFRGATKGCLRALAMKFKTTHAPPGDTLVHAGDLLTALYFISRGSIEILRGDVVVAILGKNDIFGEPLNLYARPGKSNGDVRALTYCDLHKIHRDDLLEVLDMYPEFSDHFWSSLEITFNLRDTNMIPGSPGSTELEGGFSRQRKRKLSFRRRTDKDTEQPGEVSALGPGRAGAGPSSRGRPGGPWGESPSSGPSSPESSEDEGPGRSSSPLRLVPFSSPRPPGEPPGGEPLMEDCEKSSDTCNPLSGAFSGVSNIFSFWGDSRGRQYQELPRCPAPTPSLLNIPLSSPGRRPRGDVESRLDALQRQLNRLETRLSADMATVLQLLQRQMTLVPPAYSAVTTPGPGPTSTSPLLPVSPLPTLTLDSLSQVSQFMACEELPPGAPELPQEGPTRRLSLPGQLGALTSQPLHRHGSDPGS

[1] = system: ALDH-2 (or mutant) enzyme; assay: Rate of 4-HNE oxidation by ALDH-2; type: biochemical; details: 4-HNE substrate, O.D. 340 nm, 25° C.
Description: The effect of compound 161 on the rate of 4-HNE oxidation by ALDH-2 was carried out by methods known in the art. To each well of a 96-well flat bottom UV plate, the following reagents were sequentially added by pipetting:
50 μl of 100 mM sodium pyrophosphate decahydrate (NaPPi, pH 8.4)
25 μl of 10 mM nicotinamide adenine dinucleotide hydrate (NAD)
1 μl of 20 mM testing compound DMSO solution
The plate was then put on a shaker to mix the cocktails in wells. After 5 minutes of mixing, 1 ul of ALDH-2 (or mutant) enzyme was added to each well with the reagent cocktail. DMSO was used as blank control in the plate. The plate was again put on shaker for another 5 minutes of shaking to enhance bonding between testing compounds and the enzyme.
1 ul of 30 mM 4-HNE in water was then added to each of wells containing the above reaction mixture. After a short vigorous mixing, the UV plate was fed into a plate reader to measure kinetic optical density (O.D.) at wavelength 340 nm at 25° C. over 4 minutes. Each point of measurement was taken at a time interval of 40 seconds.

CYP2C19 = CYP2C19 (Homo sapiens, UniProt P33261); assay: Cyp inhibition 2C19; type: in vitro ADME; parameters: inhibition: dose or concentration left out as unconfirmed
CYP2C19, sequence (P33261 whole entry): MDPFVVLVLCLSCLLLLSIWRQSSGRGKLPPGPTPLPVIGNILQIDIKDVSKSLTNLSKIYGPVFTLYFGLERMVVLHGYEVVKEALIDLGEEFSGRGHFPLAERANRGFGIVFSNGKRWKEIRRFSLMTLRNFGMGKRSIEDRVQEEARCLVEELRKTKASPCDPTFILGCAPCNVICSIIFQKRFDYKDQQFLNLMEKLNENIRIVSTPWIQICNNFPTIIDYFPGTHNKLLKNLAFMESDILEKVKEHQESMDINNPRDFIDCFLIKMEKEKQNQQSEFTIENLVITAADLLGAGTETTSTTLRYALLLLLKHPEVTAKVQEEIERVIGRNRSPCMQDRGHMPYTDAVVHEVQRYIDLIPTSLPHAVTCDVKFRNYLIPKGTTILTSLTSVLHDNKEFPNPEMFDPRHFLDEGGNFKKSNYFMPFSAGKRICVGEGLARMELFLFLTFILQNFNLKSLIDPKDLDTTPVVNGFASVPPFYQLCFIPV
Description: as §1

Papp A→B (Caco-2 permeability; A-B, read-out: absorption (Caco-2, Papp, A-B)): 15.7 ×10⁻⁶ cm/s | Papp B→A (Caco-2 permeability; B-A): 10.7 ×10⁻⁶ cm/s | efflux ratio (Caco-2 permeability; ratio, read-out: Caco-2 Papp B-A/A-B): 0.68 | inhibition (CYP1A2): 35% | inhibition at 10 µM (CYP1A2; 10 μM): 35.2% | Plasma stability Rat (Plasma stability, rat): 100% | Aqu. Solu. (Aqueous solubility): 28 µg/mL | inhibition at 10 µM (CYP2D6): 6.4% | ALDH2 (wild-type) (human ALDH2 wild type): ++++ | rate of 4-HNE oxidation by ALDH-2 [1]: accelerate the rate of 4-HNE oxidation | inhibition (CYP2C19): 16% | inhibition at 10 µM (CYP2C19; 10 μM): 15.9%
Structure (SMILES): COc1ccc(CNC(=O)c2c(Cl)ccnc2OCC2CC2)cc1F [Compound 161]
IC50 (hERG channel): > 30 µM
